From ChEMBL document CHEMBL3865840, “Minimizing CYP2C9 Inhibition of Exposed-Pyridine NAMPT (Nicotinamide Phosphoribosyltransferase) Inhibitors” (J Med Chem, 2016)
pIC50: −log10 of the molar value. The source made the active and inactive calls. The rule behind the calls is not given here.

Assays:
[1] = Protein binding in mouse plasma at 5 uM after 4 hrs by rapid equilibrium dialysis based LC-MS/MS analysis; type: ADME, cell-free; settings: read-out: PPB (converted)
[2] = Cmax in Sprague-Dawley rat at 5 mg/kg, po; type: ADME, organism-based; set-up: dose 5 mg/kg, route oral; settings: in vivo
[3] = Apparent permeability from apical to basolateral side in MDCK cells at 10 uM by LC/MS/MS analysis; type: ADME, cell-based, Canis lupus familiaris; settings: dog
[4] = Octanol-aqueous phosphate buffer distribution coefficient, log D of the compound at pH 7.4 after 1 hr by LC/MS/MS analysis; type: physicochemical
HT-1080 = assay: Antitumor activity against human HT1080 cells xenografted in nude NCR mouse assessed as tumor growth inhibition at 25 to 50 mg/kg administered via oral gavage twice per day for 5 consecutive days measured up to 20 days; type: functional, organism-based
[5] = Kinetic solubility of the compound in PBS at 200 uM at pH 7.4 after 24 hrs by liquid chromatography-chemiluminescence nitrogen detection assay; type: physicochemical; settings: read-out: Kinetic_solubility
[6] = Thermodynamic solubility of the compound in PBS at pH 7.4 after 24 hrs by liquid chromatography-chemiluminescence nitrogen detection assay; type: physicochemical; settings: read-out: Therm_solubility
[7] = Protein binding in dog plasma at 5 uM after 4 hrs by rapid equilibrium dialysis based LC-MS/MS analysis; type: ADME, cell-free, Canis lupus familiaris; settings: read-out: PPB (converted)
[8] = Oral bioavailability in Sprague-Dawley rat at 5 mg/kg; type: ADME, organism-based; settings: in vivo
Cytochrome P450 3A4 [9] = target: T1, Cytochrome P450 3A4 (Homo sapiens, UniProt P08684); assay: Reversible inhibition of CYP3A4 in human liver microsomes using midazolam as substrate in presence of NADPH by LC-MS/MS analysis; type: ADME
Cytochrome P450 1A2 [10] = target: T2, Cytochrome P450 1A2 (Homo sapiens, UniProt P05177); assay: Reversible inhibition of CYP1A2 in human liver microsomes using […] as substrate in presence of NADPH by LC-MS/MS analysis; type: ADME
T2 sequence (P05177 whole entry): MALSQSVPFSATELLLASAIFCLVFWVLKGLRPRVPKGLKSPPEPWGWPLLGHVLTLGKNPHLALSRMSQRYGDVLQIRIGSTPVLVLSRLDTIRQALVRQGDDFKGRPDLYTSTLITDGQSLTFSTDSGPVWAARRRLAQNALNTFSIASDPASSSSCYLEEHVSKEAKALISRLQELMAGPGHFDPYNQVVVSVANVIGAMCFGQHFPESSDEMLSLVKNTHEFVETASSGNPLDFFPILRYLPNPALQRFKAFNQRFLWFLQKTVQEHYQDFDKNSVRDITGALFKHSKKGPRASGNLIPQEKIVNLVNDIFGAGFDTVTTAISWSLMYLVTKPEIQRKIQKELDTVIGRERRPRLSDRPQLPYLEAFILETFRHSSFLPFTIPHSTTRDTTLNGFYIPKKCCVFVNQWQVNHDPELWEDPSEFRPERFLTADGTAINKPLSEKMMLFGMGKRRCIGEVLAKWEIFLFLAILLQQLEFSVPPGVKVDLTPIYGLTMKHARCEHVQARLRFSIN

[11] = Protein binding in rat plasma at 5 uM after 4 hrs by rapid equilibrium dialysis based LC-MS/MS analysis; type: ADME, cell-free; settings: read-out: PPB (converted)
[12] = AUC in Sprague-Dawley rat at 5 mg/kg, po; type: ADME, organism-based; settings: in vivo
Cytochrome P450 2C9 [13] = target: T3, Cytochrome P450 2C9 (Homo sapiens, UniProt P11712); assay: Time dependent inhibition of CYP2C9 in human liver microsomes assessed as substrate AUC shift; type: ADME; set-up: scale not given: the % may be the effect or the level left
[14] = Protein binding in cynomolgus monkey plasma at 5 uM after 4 hrs by rapid equilibrium dialysis based LC-MS/MS analysis; type: ADME, cell-free, Macaca fascicularis; settings: read-out: PPB (converted)
[15] = Half life in Sprague-Dawley rat at 1 mg/kg, iv; type: ADME, organism-based; settings: in vivo
Cytochrome P450 1A2 [16] = target: T2, Cytochrome P450 1A2; assay: Time dependent inhibition of CYP1A2 in human liver microsomes assessed as substrate AUC shift; type: ADME; set-up: scale not given: the % may be the effect or the level left
Cytochrome P450 2C9 [17] = target: T3, Cytochrome P450 2C9
[18] = Volume of distribution at steady state in Sprague-Dawley rat at 1 mg/kg, iv; type: ADME, organism-based; settings: in vivo, read-out: Vdss
[19] = Half life in Beagle dog at 0.5 mg/kg, iv; type: ADME, organism-based, Canis lupus familiaris; settings: in vivo
[20] = Apparent permeability from basolateral to apical side in MDCK cells at 10 uM by LC/MS/MS analysis; type: ADME, cell-based, Canis lupus familiaris; settings: dog
Mus musculus [21] = assay: Increase in body weight in human HT1080 tumor bearing nude NCR mouse cachexia model at 25 to 50 mg/kg administered via oral gavage twice per day for 5 consecutive days measured up to 20 days; type: functional, organism-based
Cytochrome P450 2D6 [22] = target: T4, Cytochrome P450 2D6 (Homo sapiens, UniProt P10635); assay: Time dependent inhibition of CYP2D6 in human liver microsomes assessed as substrate AUC shift; type: ADME; set-up: scale not given: the % may be the effect or the level left
Cytochrome P450 2C19 [23] = target: T5, Cytochrome P450 2C19 (Homo sapiens, UniProt P33261); assay: Time dependent inhibition of CYP2C19 in human liver microsomes assessed as substrate AUC shift; type: ADME; set-up: scale not given: the % may be the effect or the level left
[24] = Volume of distribution at steady state in Beagle dog at 0.5 mg/kg, iv; type: ADME, organism-based, Canis lupus familiaris; settings: in vivo, read-out: Vdss
[25] = Clearance in Beagle dog at 0.5 mg/kg, iv; type: ADME, organism-based, Canis lupus familiaris; settings: in vivo
Cytochrome P450 3A4 [26] = target: T1, Cytochrome P450 3A4; assay: Time dependent inhibition of CYP3A4 in human liver microsomes assessed as substrate AUC shift using midazolam as substrate; type: ADME; set-up: scale not given: the % may be the effect or the level left
Cytochrome P450 2D6 [27] = target: T4, Cytochrome P450 2D6; assay: Reversible inhibition of CYP2D6 in human liver microsomes using […] as substrate in presence of NADPH by LC-MS/MS analysis; type: ADME
[28] = Protein binding in human plasma at 5 uM after 4 hrs by rapid equilibrium dialysis based LC-MS/MS analysis; type: ADME, cell-free; settings: read-out: PPB (converted)
Cytochrome P450 3A4 [29] = target: T1, Cytochrome P450 3A4; assay: Reversible inhibition of CYP3A4 in human liver microsomes using testosterone as substrate in presence of NADPH by LC-MS/MS analysis; type: ADME
[30] = AUC in Beagle dog at 3 mg/kg, po; type: ADME, organism-based, Canis lupus familiaris; settings: in vivo
[31] = Cmax in Beagle dog at 3 mg/kg, po; type: ADME, organism-based, Canis lupus familiaris; set-up: dose 3 mg/kg, route oral; settings: in vivo
Cytochrome P450 2C19 [32] = target: T5, Cytochrome P450 2C19; assay: Reversible inhibition of CYP2C19 in human liver microsomes using […] as substrate in presence of NADPH by LC-MS/MS analysis; type: ADME
[33] = Oral bioavailability in Beagle dog at 3 mg/kg; type: ADME, organism-based, Canis lupus familiaris; settings: in vivo
[34] = Time at which plasma concentration stays above plasma protein binding corrected human HT1080 cells IC50 in nude NCR mouse at 25 mg/kg, po bid administered via gavage; type: ADME, organism-based, HT-1080; settings: in vivo
Mus musculus [35] = assay: Toxicity in nude NCR mouse xenografted with human HT1080 cells assessed as change in body weight at 25 to 50 mg/kg administered via oral gavage twice per day for 5 consecutive days measured up to 20 days; type: organism-based, HT-1080; settings: in vivo, 480 h
[36] = Clearance in Sprague-Dawley rat at 1 mg/kg, iv; type: ADME, organism-based; settings: in vivo
Cytochrome P450 3A4 [37] = target: T1, Cytochrome P450 3A4; assay: Time dependent inhibition of CYP3A4 in human liver microsomes assessed as substrate AUC shift using testosterone as substrate; type: ADME; set-up: scale not given: the % may be the effect or the level left
Cytochrome P450 3A4 [38] = target: T1, Cytochrome P450 3A4; assay: Inhibition of CYP3A4 in human liver microsomes using testosterone as substrate in presence of NADPH by LC-MS/MS analysis; type: ADME
Cytochrome P450 2C19 [39] = target: T5, Cytochrome P450 2C19
Cytochrome P450 3A4 [40] = target: T1, Cytochrome P450 3A4
Cytochrome P450 2D6 [41] = target: T4, Cytochrome P450 2D6
Cytochrome P450 2C9 [42] = target: T3, Cytochrome P450 2C9; remark: listed apart in the source
Cytochrome P450 1A2 [43] = target: T2, Cytochrome P450 1A2

T5 sequence (P33261 whole entry): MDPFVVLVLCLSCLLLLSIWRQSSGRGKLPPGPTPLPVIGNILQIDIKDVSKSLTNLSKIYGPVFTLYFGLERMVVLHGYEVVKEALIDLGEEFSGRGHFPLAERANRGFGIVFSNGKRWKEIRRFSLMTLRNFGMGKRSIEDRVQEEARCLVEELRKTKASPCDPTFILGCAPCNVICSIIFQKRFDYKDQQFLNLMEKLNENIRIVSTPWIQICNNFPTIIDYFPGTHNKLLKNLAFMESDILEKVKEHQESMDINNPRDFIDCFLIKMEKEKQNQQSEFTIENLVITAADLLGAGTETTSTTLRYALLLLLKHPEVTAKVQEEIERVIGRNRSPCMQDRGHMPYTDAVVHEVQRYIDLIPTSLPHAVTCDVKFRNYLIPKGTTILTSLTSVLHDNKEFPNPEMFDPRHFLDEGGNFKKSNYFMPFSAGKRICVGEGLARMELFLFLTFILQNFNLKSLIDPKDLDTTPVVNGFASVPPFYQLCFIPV
T1 sequence (P08684 whole entry): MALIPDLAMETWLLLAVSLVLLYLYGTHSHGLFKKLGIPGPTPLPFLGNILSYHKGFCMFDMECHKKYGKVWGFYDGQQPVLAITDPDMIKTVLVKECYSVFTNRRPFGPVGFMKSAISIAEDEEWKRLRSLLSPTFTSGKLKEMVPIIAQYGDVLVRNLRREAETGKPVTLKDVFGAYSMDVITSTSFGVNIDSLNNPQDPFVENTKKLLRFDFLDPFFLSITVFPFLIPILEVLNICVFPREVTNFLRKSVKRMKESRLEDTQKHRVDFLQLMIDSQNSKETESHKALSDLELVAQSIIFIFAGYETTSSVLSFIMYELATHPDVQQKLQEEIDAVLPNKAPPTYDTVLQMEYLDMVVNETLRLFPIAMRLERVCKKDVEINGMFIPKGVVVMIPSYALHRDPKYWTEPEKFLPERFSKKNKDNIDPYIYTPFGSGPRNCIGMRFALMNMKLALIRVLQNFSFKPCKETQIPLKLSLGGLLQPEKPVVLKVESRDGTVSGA
T4 sequence (P10635 whole entry): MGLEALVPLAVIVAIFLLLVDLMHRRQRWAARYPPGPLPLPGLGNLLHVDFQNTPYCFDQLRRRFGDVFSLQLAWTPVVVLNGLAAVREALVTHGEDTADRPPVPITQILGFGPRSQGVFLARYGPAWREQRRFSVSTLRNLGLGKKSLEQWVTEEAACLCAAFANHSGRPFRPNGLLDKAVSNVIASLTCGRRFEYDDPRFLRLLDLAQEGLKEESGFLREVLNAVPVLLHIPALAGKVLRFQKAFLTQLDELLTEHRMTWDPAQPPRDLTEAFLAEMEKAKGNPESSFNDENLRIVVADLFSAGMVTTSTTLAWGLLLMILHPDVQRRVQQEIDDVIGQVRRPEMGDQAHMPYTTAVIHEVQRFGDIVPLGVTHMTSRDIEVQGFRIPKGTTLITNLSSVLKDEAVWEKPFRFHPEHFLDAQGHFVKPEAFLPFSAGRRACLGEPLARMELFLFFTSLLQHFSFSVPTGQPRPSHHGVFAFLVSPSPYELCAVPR
T3 sequence (P11712 whole entry): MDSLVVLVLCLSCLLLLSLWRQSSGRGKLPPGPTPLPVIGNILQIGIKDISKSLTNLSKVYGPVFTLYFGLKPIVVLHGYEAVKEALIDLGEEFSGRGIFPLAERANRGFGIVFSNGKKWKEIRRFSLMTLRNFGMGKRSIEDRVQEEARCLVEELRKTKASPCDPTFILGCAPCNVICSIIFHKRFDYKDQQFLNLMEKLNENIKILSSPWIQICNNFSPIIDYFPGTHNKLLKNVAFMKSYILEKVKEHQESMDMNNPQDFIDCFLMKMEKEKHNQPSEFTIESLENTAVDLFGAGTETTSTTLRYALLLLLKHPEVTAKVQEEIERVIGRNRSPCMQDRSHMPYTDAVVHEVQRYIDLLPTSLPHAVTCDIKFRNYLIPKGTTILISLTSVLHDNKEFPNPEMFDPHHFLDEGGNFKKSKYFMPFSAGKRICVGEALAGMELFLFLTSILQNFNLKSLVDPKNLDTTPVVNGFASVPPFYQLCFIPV

CC1(OC(=O)N2CCC3(CC2)C[C@@H]3CNC(=O)N2Cc3ccncc3C2)COC1
fraction unbound at 4 h, 5 µM [1]: 0.47 | Cmax [2]: 640 nM | Papp A→B at 10 µM [3]: 8.8 ×10⁻⁶ cm/s | logD at 1 h [4]: 1.2 | TGI (HT-1080): Active | solubility kinetic at 24 h, 200 µM [5]: > 0.1 mM | solubility thermodynamic at 24 h [6]: > 6 mM | fraction unbound at 4 h, 5 µM [7]: 0.34 | bioavailability [8]: 29% | pIC50 (Cytochrome P450 3A4 [9]): < 5.00 | pIC50 (Cytochrome P450 1A2 [10]): < 5.00 | fraction unbound at 4 h, 5 µM [11]: 0.44 | AUC [12]: 0.55 µM·h | Activity (Cytochrome P450 2C9 [13]): < 15% | fraction unbound at 4 h, 5 µM [14]: 0.46 | half-life [15]: 1.4 h | Activity (Cytochrome P450 1A2 [16]): < 15% | pIC50 (Cytochrome P450 2C9 [17]): < 5.00 | Vd [18]: 9 L/kg | half-life [19]: 1.2 h | Papp B→A at 10 µM [20]: 12 ×10⁻⁶ cm/s | Activity (Mus musculus [21]): Active | Activity (Cytochrome P450 2D6 [22]): < 15% | Activity (Cytochrome P450 2C19 [23]): < 15% | Vd [24]: 0.8 L/kg | clearance [25]: 10.8 mL/min/kg | Activity (Cytochrome P450 3A4 [26]): < 15% | pIC50 (Cytochrome P450 2D6 [27]): < 5.00 | fraction unbound at 4 h, 5 µM [28]: 0.44 | pIC50 (Cytochrome P450 3A4 [29]): < 5.00 | AUC [30]: 10.5 µM·h | Cmax [31]: 4800 nM | pIC50 (Cytochrome P450 2C19 [32]): < 5.00 | bioavailability [33]: 86% | Time [34]: 20 h | Activity (Mus musculus [35]): Non-Toxic | clearance [36]: 110 mL/min/kg | Activity (Cytochrome P450 3A4 [37]): < 15%

O=C(NCc1ccc(S(=O)(=O)c2cccc(C(F)(F)F)c2)cc1)c1cnc2[nH]ncc2c1
pIC50 (Cytochrome P450 2C9 [17]): 7.15 | pIC50 (Cytochrome P450 3A4 [38]): 5.10 | pIC50 (Cytochrome P450 2C19 [39]): 5.19 | pIC50 (Cytochrome P450 3A4 [40]): 5.05 | pIC50 (Cytochrome P450 2D6 [41]): < 5.00 | pIC50 (Cytochrome P450 2C9 [42]): 5.32 | pIC50 (Cytochrome P450 1A2 [43]): < 5.00
